In patent publication US20150238614A1, “STABILISED AMORPHOUS FORM OF AGOMELATINE, A PROCESS FOR ITS PREPARATION AND PHARMACEUTICAL COMPOSITIONS CONTAINING IT” (LES LABORATOIRES SERVIER, priority 2012, published 2015):
In brackets after ≈: the same amount, converted by molar mass.

Legend:
[1] = Glass transition temperature by scanning calorimetric analysis (DSC); assay type: physicochemical
Experimental: The Applicant has now discovered that agomelatine has an amorphous state whose glass transition temperature has been measured at −6° C. by scanning calorimetric analysis, or DSC (“Differential Scanning calorimetry”). Above that temperature, the active ingredient undergoes a transition towards a crystalline form. Preserving agomelatine in the amorphous state at ambient temperature is therefore not possible.

[2] = Solubility study, Crystal16 apparatus, pH 6.8 buffer, nephelometric detection; assay type: physicochemical; settings: pH 6.8 buffer solution, aqueous buffer, thermodynamic from solid, 25° C., reference under the study conditions, read-out: Solubility of agomelatine (reference)
Experimental: Various concentrations were tested and the presence of insoluble particles was monitored by nephelometric detection.

[3] = 25° C.; cited from earlier work

Glass transition temperature of the amorphous state [1]: −6 °C
solubility at 4 h [2]: 140 µg/mL (≈ 575 µM)
Structure (SMILES): COc1ccc2cccc(CCNC(C)=O)c2c1 [agomelatine, N-[2-(7-methoxy-1-naphthyl)ethyl]acetamide]
Solubility of agomelatine in water [3]: less than 0.15 mg/ml
